By Ki is commonly meant the dissociation constant of the complex between target and ligand, obtained from inhibition or displacement.

The structures appear in SMILES notation.

One assay concerns the target GSK3β (H350L) (Homo sapiens (Human), UniProt P49841). Particulars: read-out: GSK3β Ki.
Assay [1] concerns the target CDK2/Cyclin E1 full length (Homo sapiens (Human), UniProt P24941). Briefly: CDK2/Cyclin E1 full length mobility shift assay. It is filed as biochemical.
Method: Cdk2/Cyclin E1 Full Length Mobility Shift Assay
Wild-type CDK2/wild-type full length Cyclin E1 enzyme complex was produced in-house (baculoviral expression, LJIC-2080/LJIC-2103) and phosphorylated by CDK7/Cyclin H1/Matl enzyme complex with CDK2:CDK7 ratio of 50:1 (concentration mg/mL) in the presence of 10 mM MgCl2 and 5 mM ATP at room temperature for one hour. […] The assay was initiated with the addition of ATP, following a fifteen minutes pre-incubation of enzyme and inhibitor at room temperature in the reaction mixture. The reaction was stopped after 45 minutes at room temperature by the addition of 50 μL of 80 mM EDTA.

GSK3β (H350L), sequence (P49841 whole entry, stated change not applied): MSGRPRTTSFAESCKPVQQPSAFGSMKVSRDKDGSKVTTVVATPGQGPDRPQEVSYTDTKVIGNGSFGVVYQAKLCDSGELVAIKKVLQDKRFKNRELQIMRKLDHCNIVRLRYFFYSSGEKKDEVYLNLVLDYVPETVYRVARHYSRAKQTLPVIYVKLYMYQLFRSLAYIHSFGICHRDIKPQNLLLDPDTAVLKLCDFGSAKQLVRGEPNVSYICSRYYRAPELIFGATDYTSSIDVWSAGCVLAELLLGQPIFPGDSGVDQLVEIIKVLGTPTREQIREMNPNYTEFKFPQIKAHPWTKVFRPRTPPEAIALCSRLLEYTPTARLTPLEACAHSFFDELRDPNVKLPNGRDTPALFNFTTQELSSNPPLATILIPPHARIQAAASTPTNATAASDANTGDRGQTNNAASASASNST
Method for GSK3β (H350L): The assay was initiated with the addition of ATP, following 15 minutes pre-incubation of enzyme and inhibitor at room temperature in the reaction mixture. The reaction was stopped after 30 minutes at room temperature by the addition of 50 μL of 80 mM EDTA.

Regarding `CC[C@H](C)NC(=O)O[C@@H]1CC[C@H](c2cc(NC(=O)c3cc(COC)nn3C)n[nH]2)C1` [Example 14, (1R,3S)-3-[3-({[3-(methoxymethyl)-1-methyl-1H-pyrazol-5-yl]carbonyl}amino)-1H-pyrazol-5-yl]cyclopentyl (2S)-butan-2-ylcarbamate], the Ki was 294 nM at GSK3β (H350L) and 0.27 nM in assay [1].

As for `CC(C)(C)NC(=O)O[C@@H]1CC[C@H](c2cc(NC(=O)Cc3ccon3)n[nH]2)C1` [Example 17, (1R,3S)-3-{3-[(1,2-oxazol-3-ylacetyl)amino]-1H-pyrazol-5-yl}cyclopentyl tert-butylcarbamate], the inhibition constant Ki at GSK3β (H350L) is 65.8 nM; in assay [1], 0.33 nM.

Regarding `CCCNC(=O)O[C@H]1CC[C@@H](c2cc(NC(=O)Cc3cncs3)n[nH]2)C1` [Example 20], the results for the Ki (at GSK3β (H350L); in assay [1]) were 27.9 nM and 0.21 nM, respectively.

For `CCCNC(=O)O[C@H]1CC[C@@H](c2cc(NC(=O)Cc3ccc(OC)nc3)n[nH]2)C1` [Example 21], the values for the Ki (at GSK3β (H350L); in assay [1]) were 4.2 nM and 0.25 nM, respectively.

Take `CCCNC(=O)O[C@H]1CC[C@@H](c2cc(NC(=O)Cc3cnc(C)s3)n[nH]2)C1` [Example 22]: the Ki at GSK3β (H350L) is greater than 191 nM; in assay [1] it was 0.23 nM.

Regarding `CCCNC(=O)O[C@H]1CC[C@@H](c2cc(NC(=O)Cc3ccc4[nH]c(C)nc4c3)n[nH]2)C1` [Example 23], the figures for the Ki (at GSK3β (H350L); in assay [1]) were 2.45 nM and 0.11 nM, respectively.

Turning to `O=C(Cc1cc(F)cc(F)c1)Nc1cc([C@@H]2CC[C@H](OC(=O)N[C@H]3CC[C@@H](O)CC3)C2)[nH]n1` [Example 27], the Ki was determined as 3.57 nM at GSK3β (H350L) and 0.24 nM in assay [1].

For `O=C(Cc1cc(F)cc(F)c1)Nc1cc([C@@H]2CC[C@H](OC(=O)N[C@H]3CC[C@H](O)CC3)C2)[nH]n1` [Example 28], the Ki at GSK3β (H350L) turned out to be 4.5 nM; in assay [1], 0.18 nM.

As for `CC[C@@H](C)NC(=O)O[C@H]1CC[C@@H](c2cc(NC(=O)Cc3ccno3)n[nH]2)C1` [Example 29], the values for the Ki (on GSK3β (H350L); in assay [1]) were 19.7 nM and 0.16 nM, respectively.

Take `CC[C@H](C)NC(=O)O[C@H]1CC[C@@H](c2cc(NC(=O)Cc3ccno3)n[nH]2)C1` [Example 30]: the Ki amounted to 20.6 nM on GSK3β (H350L) and 0.16 nM in assay [1].

Consider `CC[C@H](C)NC(=O)O[C@H]1CC[C@@H](c2cc(NC(=O)c3cnnn3C)n[nH]2)C1` [Example 31], for which the figures for the Ki (on GSK3β (H350L); in assay [1]) were 45.1 nM and 0.16 nM, respectively.

As to `CC[C@H](C)NC(=O)O[C@@H]1CC[C@H](c2cc(NC(=O)Cc3cc(C)no3)n[nH]2)C1` [Example 32], the Ki at GSK3β (H350L) was 35.7 nM; in assay [1] it was 0.36 nM.

On to `CC[C@H](C)NC(=O)O[C@@H]1CC[C@H](c2cc(NC(=O)Cc3cnc(C)s3)n[nH]2)C1` [Example 33], for which the Ki came out at 26.4 nM on GSK3β (H350L) and 0.17 nM in assay [1].

As for `CC[C@H](C)NC(=O)O[C@@H]1CC[C@H](c2cc(NC(=O)Cc3cnc(C)cn3)n[nH]2)C1` [Example 34], the results for the Ki (at GSK3β (H350L); in assay [1]) were 31.2 nM and 0.33 nM, respectively.

As to `CC[C@H](C)NC(=O)O[C@@H]1CC[C@H](c2cc(NC(=O)Cc3ccc(C)nc3)n[nH]2)C1` [Example 35], the Ki on GSK3β (H350L) came out at 12.5 nM; in assay [1], 0.22 nM.

`CC[C@H](C)NC(=O)O[C@@H]1CC[C@H](c2cc(NC(=O)Cc3cncs3)n[nH]2)C1` [Example 36]: the Ki worked out at 21.3 nM on GSK3β (H350L) and 0.17 nM in assay [1].

With `CC[C@H](C)NC(=O)O[C@@H]1CC[C@H](c2cc(NC(=O)Cc3ccnc(OC)c3)n[nH]2)C1` [Example 37], the Ki came to 23.4 nM at GSK3β (H350L) and 0.19 nM in assay [1].

For `CC[C@H](C)NC(=O)O[C@@H]1CC[C@H](c2cc(NC(=O)Cc3ccccc3)n[nH]2)C1` [Example 38], the Ki on GSK3β (H350L) amounted to 69.7 nM; in assay [1], 0.18 nM.

For the compound `CC[C@H](C)NC(=O)O[C@@H]1CC[C@H](c2cc(NC(=O)Cc3cnc4ncnn4c3)n[nH]2)C1` [Example 39], the Ki on GSK3β (H350L) amounted to 23.9 nM; in assay [1], 0.14 nM.

Consider `CC[C@H](C)NC(=O)O[C@@H]1CC[C@H](c2cc(NC(=O)Cc3ccccc3S(=O)(=O)CC)n[nH]2)C1` [Example 40], for which the Ki at GSK3β (H350L) worked out at 64.5 nM; in assay [1] it was 0.24 nM.

Consider `CC[C@H](C)NC(=O)O[C@@H]1CC[C@H](c2cc(NC(=O)c3cc(OC)nn3C)n[nH]2)C1` [Example 41], for which the Ki on GSK3β (H350L) was determined as 343 nM; in assay [1] it was 0.2 nM.

`CC[C@H](C)NC(=O)O[C@@H]1CC[C@H](c2cc(NC(=O)c3ccnn3C)n[nH]2)C1` [Example 42]: the results for the Ki (at GSK3β (H350L); in assay [1]) were 34.4 nM and 0.05 nM, respectively.

As for `CC[C@H](C)NC(=O)O[C@@H]1CC[C@H](c2cc(NC(=O)c3ccnc4ncsc34)n[nH]2)C1` [Example 43], the Ki on GSK3β (H350L) turned out to be 45.4 nM; in assay [1] it was 0.04 nM.

Consider `CC[C@H](C)NC(=O)O[C@@H]1CC[C@H](c2cc(NC(=O)Cc3ccc(OC)cc3S(C)(=O)=O)n[nH]2)C1` [Example 44], for which the Ki at GSK3β (H350L) stood at 47.8 nM; in assay [1] it was 0.21 nM.

For the compound `CC[C@H](C)NC(=O)O[C@@H]1CC[C@H](c2cc(NC(=O)Cc3ccc(C)cc3S(C)(=O)=O)n[nH]2)C1` [Example 45], the Ki turned out to be 61.4 nM on GSK3β (H350L) and 0.11 nM in assay [1].

Regarding `CC[C@H](C)NC(=O)O[C@@H]1CC[C@H](c2cc(NC(=O)Cc3ccc4ncc(C)n4n3)n[nH]2)C1` [Example 46], the figures for the Ki (at GSK3β (H350L); in assay [1]) were 20.6 nM and 0.18 nM, respectively.

Regarding `CC[C@H](C)NC(=O)O[C@@H]1CC[C@H](c2cc(NC(=O)Cc3ccc4nc(C)cn4n3)n[nH]2)C1` [Example 47], the values for the Ki (on GSK3β (H350L); in assay [1]) were 10.2 nM and 0.11 nM, respectively.

As to `CC[C@H](C)NC(=O)O[C@@H]1CC[C@H](c2cc(NC(=O)Cc3ccc4c(cnn4C)c3)n[nH]2)C1` [Example 48], the Ki on GSK3β (H350L) came out at 9.58 nM; in assay [1], 0.17 nM.

Turning to `CC[C@H](C)NC(=O)O[C@@H]1CC[C@H](c2cc(NC(=O)Cc3cc(OC)ccc3S(C)(=O)=O)n[nH]2)C1` [Example 50], the Ki at GSK3β (H350L) is 117 nM; in assay [1], 0.17 nM.

As to `CC[C@H](C)NC(=O)O[C@@H]1CC[C@H](c2cc(NC(=O)c3ccnn3CCOC)n[nH]2)C1` [Example 51], the Ki at GSK3β (H350L) amounted to 54 nM; in assay [1] it was 0.2 nM.

Consider `CC[C@H](C)NC(=O)O[C@@H]1CC[C@H](c2cc(NC(=O)Cc3cc(O)ncc3S(C)(=O)=O)n[nH]2)C1` [Example 52], for which the Ki at GSK3β (H350L) amounted to 10.9 nM; in assay [1] it was 0.2 nM.

As to `CC[C@H](C)NC(=O)O[C@@H]1CC[C@H](c2cc(NC(=O)c3ccnn3CCO)n[nH]2)C1` [Example 53], the Ki on GSK3β (H350L) amounted to 45.7 nM; in assay [1], 0.1 nM.

As to `CCCNC(=O)O[C@@H]1CC[C@H](c2cc(NC(=O)Cc3ccc4c(cnn4C)c3)n[nH]2)C1` [Example 54], the figures for the Ki (at GSK3β (H350L); in assay [1]) were 9.25 nM and 0.24 nM, respectively.

For the compound `CC(C)NC(=O)O[C@@H]1CC[C@H](c2cc(NC(=O)Cc3ccc4c(cnn4C)c3)n[nH]2)C1` [Example 55], the Ki on GSK3β (H350L) was found to be 10.4 nM; in assay [1] it was 0.1 nM.

For `COc1cc(CC(=O)Nc2cc([C@H]3CC[C@@H](OC(=O)N(C)C(C)C)C3)[nH]n2)ccn1` [Example 58], the Ki at GSK3β (H350L) came to 9.86 nM; in assay [1], 0.21 nM.

With `COc1ccc(CC(=O)Nc2cc([C@H]3CC[C@@H](OC(=O)N(C)C(C)C)C3)[nH]n2)cn1` [Example 59], the Ki at GSK3β (H350L) was 2.89 nM; in assay [1], 0.15 nM.

As for `CC(C)NC(=O)O[C@@H]1CC[C@H](c2cc(NC(=O)Cc3cnn(C)c3)n[nH]2)C1` [Example 60], the values for the Ki (at GSK3β (H350L); in assay [1]) were 92.5 nM and 0.33 nM, respectively.

Turning to `CCC(C)(C)NC(=O)O[C@@H]1CC[C@H](c2cc(NC(=O)Cc3cnn(C)c3)n[nH]2)C1` [Example 61], the Ki at GSK3β (H350L) stood at 42.3 nM; in assay [1] it was 0.11 nM.

For `CCC(C)(C)NC(=O)O[C@@H]1CC[C@H](c2cc(NC(=O)Cc3ncc(C)o3)n[nH]2)C1` [Example 62], the Ki amounted to 24 nM at GSK3β (H350L) and 0.21 nM in assay [1].

Consider `C[C@@H](CC(F)(F)F)NC(=O)O[C@@H]1CC[C@H](c2cc(NC(=O)c3cnnn3C)n[nH]2)C1` [Example 91], for which the results for the Ki (on GSK3β (H350L); in assay [1]) were 28.1 nM and 0.09 nM, respectively.

For the compound `C[C@@H](CC(F)(F)F)NC(=O)O[C@@H]1CC[C@H](c2cc(NC(=O)Cc3cnn(C)c3)n[nH]2)C1` [Example 92], the Ki on GSK3β (H350L) is 16.6 nM; in assay [1] it was 0.1 nM.

Consider `Cc1coc(CC(=O)Nc2cc([C@H]3CC[C@@H](OC(=O)N[C@@H](C)CC(F)(F)F)C3)[nH]n2)n1` [Example 93], for which the Ki on GSK3β (H350L) was 7.64 nM; in assay [1], 0.22 nM.

Consider `Cc1cnc(CC(=O)Nc2cc([C@H]3CC[C@@H](OC(=O)NC(C)(C)CC(F)(F)F)C3)[nH]n2)o1` [Example 95], for which the Ki on GSK3β (H350L) is 32.2 nM; in assay [1], 0.25 nM.

Consider `COc1cc(CC(=O)Nc2cc([C@H]3CC[C@@H](OC(=O)N[C@@H](C)CF)C3)[nH]n2)ccn1` [Example 100], for which the Ki at GSK3β (H350L) was determined as 41.7 nM; in assay [1], 0.43 nM.

For `COc1cc(CC(=O)Nc2cc([C@H]3CC[C@@H](OC(=O)N[C@@H](C)[C@@H](C)F)C3)[nH]n2)ccn1` [Example 101], the Ki at GSK3β (H350L) was found to be 20.9 nM; in assay [1], 0.28 nM.

With `COc1cc(CC(=O)Nc2cc([C@H]3CC[C@@H](OC(=O)NCCC(F)(F)F)C3)[nH]n2)ccn1` [Example 102], the Ki at GSK3β (H350L) turned out to be 9.9 nM; in assay [1], 0.39 nM.

For `COCc1cc(C(=O)Nc2cc([C@H]3CC[C@@H](OC(=O)NCCC(F)(F)F)C3)[nH]n2)n(C)n1` [Example 103], the Ki at GSK3β (H350L) is greater than 47.6 nM; in assay [1], 1.37 nM.

In the case of `COCc1cc(C(=O)Nc2cc([C@H]3CC[C@@H](OC(=O)N[C@@H](C)C4CC4)C3)[nH]n2)n(C)n1` [Example 104], the values for the Ki (on GSK3β (H350L); in assay [1]) were greater than 47.6 nM and 0.17 nM, respectively.

As to `COCc1cc(C(=O)Nc2cc([C@H]3CC[C@@H](OC(=O)N[C@H](C)C4CC4)C3)[nH]n2)n(C)n1` [Example 105], the figures for the Ki (at GSK3β (H350L); in assay [1]) were greater than 47.6 nM and 0.47 nM, respectively.

In the case of `Cc1cc(CC(=O)Nc2cc([C@H]3CC[C@@H](OC(=O)NC(C)(C)C)C3)[nH]n2)on1` [Example 107], the figures for the Ki (at GSK3β (H350L); in assay [1]) were 27.1 nM and 0.19 nM, respectively.

The values are drawn from patent US11014911B2, “CDK2 inhibitors” (Pfizer Inc., priority 2019, dated 2021).
